{
  "source": "patent US20180245049A1",
  "about": "“METHOD FOR INDUCING DIFFERENTIATION OF STEM CELLS” (STICHTING KATHOLIEKE UNIVERSITEIT, priority 2015, published 2018)",
  "key": {"hMSCs [1]": {"system": "hMSCs", "assay": "Live/dead assay (calcein-AM and MTT) of gel-encapsulated cells", "assay_type": "cell-based, human", "details": "live/dead assay after 48 h and 96 h of culture, 50 nM", "method": "Cell Culture. Human Mesenchymal Stem Cells (hMSCs) were obtained from Lonza, Inc. (Switzerland). Cells were then cultured in α-MEM medium (lnvitrogen) supplemented with 10% fetal bovine serum (FBS), 1% penicillin/streptomycin and incubated in a humidified atmosphere containing 5% (v/v) CO2 at 37° C. For the encapsulation of cells in the gels, first, the cell pellets were obtained by centrifugation. Then 500 μL of the cold polymer solution (˜10° C.) was added directly to the pellet, followed by a gentle pipetting up and down 3-4 times to ensure a homogeneous mixture that was directly put onto a cover slip in a 6-well plate (also kept cold). Thereafter, the solution was sandwiched between two cover slips and the well plate was transferred to a 37° C. incubator. The volume of the suspension was chosen (500 μL) in order to obtain hydrogel thickness in the range of 3 mm. […] To evaluate proliferation, total double-stranded DNA content was determined by using the PicoGreen assay as previously reported.\nMTT Assay. As described in literature, briefly, cell viability was determined by the 3-(4,5-dimethylthiazol-2-yl)-2,5-diphenyltetrazolium bromide (MTT) assay and the data are presented as a percentage of control viability.\nLive/Dead Staining. Cell viability was determined with the live/dead viability/cytotoxicity kit (Molecular Probes), according to the manufacturer's protocol."}, "hMSCs [2]": {"system": "hMSCs", "assay": "Lineage commitment and differentiation of gel-encapsulated hMSCs in bipotential differentiation medium (STRO-1, Osterix, Oil-red O staining)", "assay_type": "cell-based, human", "method": "Cell Culture. Human Mesenchymal Stem Cells (hMSCs) were obtained from Lonza, Inc. (Switzerland). Cells were then cultured in α-MEM medium (lnvitrogen) supplemented with 10% fetal bovine serum (FBS), 1% penicillin/streptomycin and incubated in a humidified atmosphere containing 5% (v/v) CO2 at 37° C. For the encapsulation of cells in the gels, first, the cell pellets were obtained by centrifugation. Then 500 μL of the cold polymer solution (˜10° C.) was added directly to the pellet, followed by a gentle pipetting up and down 3-4 times to ensure a homogeneous mixture that was directly put onto a cover slip in a 6-well plate (also kept cold). Thereafter, the solution was sandwiched between two cover slips and the well plate was transferred to a 37° C. incubator. The volume of the suspension was chosen (500 μL) in order to obtain hydrogel thickness in the range of 3 mm. […] Afterwards, the gel becomes stiffer with time and attains the final stiffness in 2-3 minutes. This favors the supporting of cells in 3D rather than the cells settling at the bottom. After gel formation, the two cover slips were removed and α-MEM medium (without serum) was added. All cell culture experiments were carried out without any serum in the medium for the first 6 h of culture. Then, α-MEM medium with 10% serum was added. All cells were used at low passage numbers (≤passage 4), were subconfluently cultured and were seeded at 10^6 cells/mL for the purpose of the experiments and in order to avoid cell-cell contacts. The lineage commitment and differentiation of the gel encapsulated hMSCs after 96 h and 3 weeks of culture, respectively, were investigated with bipotential differentiation medium (1:1 v/v osteogenic and adipogenic media, Lonza). For all the experiments, a non-functionalized soft polymer gel (cell culture in growth medium) served as control. […] The pharmacological agents used were 50 μM Blebbistatin (EMD Biosciences-Calbiochem), 1 μM cytochalasin D (Sigma) and 50 nM Taxol (Abcam). The hMSCs were exposed to each pharmacological agent for 1 h, 24 h and 72 h, respectively, after seeding on a modified polymer. For antibody inhibition studies, cells were preincubated with 5 ng/mL anti-α1, 2, 3 and 5-β1, 2 (all from Santa Cruz Biotechnology). For competition experiments with soluble RGD peptides, the cells were incubated in 1 mL of cell culture media containing 200 μg of RGDS peptides during 20 min on plastic and then transferred to the polymer gels. To evaluate proliferation, total double-stranded DNA content was determined by using the PicoGreen assay as previously reported.\nImmunostaining. […]"}},
  "data": [
    {"smiles": "CC(=O)O[C@H]1C(=O)[C@@]2(C)[C@H]([C@H](OC(=O)c3ccccc3)[C@]3(O)C[C@H](OC(=O)[C@H](O)[C@@H](NC(=O)c4ccccc4)c4ccccc4)C(C)=C1C3(C)C)[C@]1(OC(C)=O)CO[C@@H]1C[C@@H]2O", "note": "[Taxol]", "values": [
      {"measurement": "cell viability after Taxol treatment", "setting": "hMSCs [1]", "result": "did not affect cell viability"},
      {"measurement": "hMSCs commitment after Taxol treatment", "setting": "hMSCs [2]; 50 nM", "result": "decrease in hMSCs commitment"}
    ]},
    {"smiles": "Cc1ccc2c(c1)C(=O)C1(O)CCN(c3ccccc3)C1=N2", "note": "(centres unmarked) [blebbistatin]", "values": [
      {"measurement": "STRO-1 in encapsulated cells in presence of blebbistatin", "setting": "hMSCs [2]; 50 μM, all the polymer gels", "result": "high levels of STRO-1"},
      {"measurement": "hMSCs commitment in presence of blebbistatin", "setting": "hMSCs [2]; 50 μM, all the polymer gels", "result": "inhibited the hMSCs commitment"}
    ]},
    {"smiles": "C=C1[C@@H](C)[C@H]2[C@H](Cc3ccccc3)NC(=O)[C@]23[C@H](OC(C)=O)/C=C/[C@@](C)(O)C(=O)[C@@H](C)C/C=C/[C@H]3[C@@H]1O", "note": "[cytochalasin-D]", "values": [
      {"measurement": "hMSCs commitment after cytochalasin-D treatment", "setting": "hMSCs [2]; 1 μM, towards both osteogenesis and adipogenesis", "result": "overall decreased commitment"}
    ]}
  ]
}
